Measurements from PubChem BioAssay AID179 (DTP/NCI, 2004).
Active and inactive are the calls of the source.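 Rule for the calls: active = compounds giving half or more protection of infected cells from virus-caused growth loss, again on retest; inactive = the rest.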

System: CEM cells HIV-1 protection, formazan growth assay
Assay: NCI AIDS Antiviral Assay
Conditions: for IC50: measured here: growth of uninfected CEM cells
Summary of the method: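 Human CEM cells, uninfected and HIV-1-infected, exposed to five drug concentrations; growth measured by soluble formazan assay and scored as percent protection from infection, with protecting compounds retested.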

Structure (SMILES)	EC50 [µM]	IC50 [µM]	outcome
COC1CC(OC2C(C)OC(OC3C(C)OC(OC4C(C)OC(O[C@H]5CC[C@@]6(C)C(=CC[C@]7(O)[C@@H]6C[C@@H](OC(=O)/C=C/c6ccccc6)[C@@]6(C)[C@]7(O)CC[C@@]6(O)C(C)=O)C5)CC4OC)CC3OC)CC2OC)OC(C)C1O (some centres undefined)	> 200	21.9	
CC(C)/C(Cl)=N/OC(=O)Nc1ccc(Cl)c(Cl)c1	> 20	3.16	
NCCCC1CCCCNC1 (centres undefined)			inactive
O=c1cc(-c2ccccc2)oc2cc(O)c(O)c(O)c12	> 200	22.4	
COc1cccc(/C=C2\S/C(=N/Nc3nc(C)c(C)s3)NC2=O)c1O	> 200	129	
NC(=O)c1csc(C2OC(COP(=O)(O)CP(=O)(O)OCC3OC(n4cnc5c(N)ncnc54)C(O)C3O)C(O)C2O)n1 (centres undefined)	> 151	91.2	
O=C(Cc1nc2ccccc2o1)C(=O)Nc1ccc(Cl)cc1Cl	> 7.76	> 7.76	
COc1ccc(C(=O)C(c2ccc(OC)cc2)C2OC(=O)C(Cl)=C2Cl)cc1 (centres undefined)	> 17.8	> 17.8	
CN1C=c2c3c(ccc2=C2C=CC4C=C5OCOC5=CC4=C21)OCO3 (centres undefined)	> 20	0.759	
Cc1c(C)c2c(c(N)c1C#N)C(=O)N(CCc1ccccc1)C2=O	> 200	170	
CCS(=O)(=O)CCOP(=O)(c1ccccc1)c1ccccc1			inactive
C=C1CC(c2ccc(OCCCN3C(=O)c4ccccc4C3=O)cc2)OC1=O (centres undefined)	> 20	1.7	
Cc1nc([N+](=O)[O-])cn1CC(=N)N	> 1120	> 1120	
CCOc1ccc(/C=N\N2C(=O)c3ccccc3C2=O)cc1	> 123	> 123	
CC(C)(C)OC(=O)NCCNCCNc1ccccc1			inactive
N#C/C(=C\c1ccc(O)c(O)c1)C(=O)NCCCCCNC(=O)/C(C#N)=C/c1ccc(O)c(O)c1	> 200	11.5	
CC1(C)OCC2OC3([C@H](O)CCO)OC(C)(C)OC3C2O1 (some centres undefined)	> 200	> 200	
CCOC(=O)c1c(Br)c(-c2ccc(OC)cc2)c(Br)n1C	> 200	12.6	
CCOC(=O)CN1CCSC1=NC#N			inactive
CC(C)c1nsc2c1C(=O)NC(C(C)(C)C)N2 (centres undefined)	> 269	209	
CCOC(=O)c1nnc2sc(-c3ccccc3)nn12	58.9	191	
CCCOc1csc([C@H]2CCC3[C@@H]4CC=C5C[C@@H](OC(=O)CCC(=O)O)CC[C@]5(C)C4CC[C@@]32C)n1 (some centres undefined)	> 47.9	18.2	

Structure (SMILES)	EC50 [µM]	IC50 [µM]	outcome
O=C(CNN1C(=O)CSC1=Nc1cccc2ccccc12)c1cccc2c1Nc1ccccc1S2			inactive
CC1(C)CNC(=O)C2=C(O1)C(=O)OC2	> 1260	> 1260	
COc1ccc2c(ccc(=O)n2C)c1	> 200	> 200	
CC1(C)CN=CC(C)(OCc2ccccc2)C(=O)NC(C)(C)CN=CC(C)(OCc2ccccc2)C(=O)N1 (centres undefined)	> 7.24	> 7.24	
O=C1C(Cl)N(c2ccc(Cl)cc2Cl)C1c1c[nH]c2ccccc12 (centres undefined)	> 70.8	> 70.8	
Cc1cn(CC(CO)CCO)c(=O)[nH]c1=O (centres undefined)	> 1100	> 1100	
O=C1c2ccccc2C(=O)c2cc3c(cc21)CS(=O)C3			inactive
O=[N+]([O-])c1cccc(C2c3ccccc3Oc3ccccc32)c1	> 200	19.1	
COc1ccc2c(c1O)-c1c(OC)c(OC)cc3c1C(C2)N(C)CC3 (centres undefined)	> 200	> 200	
O=C1c2ccccc2C(=O)c2nc3ccc(Cl)cc3cc21	> 6.17	> 6.17	
COc1ccc2oc3c4c2c1CCC4CCC3=O (centres undefined)			inactive
C[C@]12CC[C@H]3[C@@H](CCC4=CC(=O)[C@H](Br)C[C@@]43C)[C@@H]1CC[C@@H]2C(=O)CBr	> 2	0.316	
CCOC(=O)/C(SC#N)=C(/N)N1CCCC1	> 200	> 200	
CC(=O)c1ccc(NC(=O)/C(=N\NC(N)=O)C(C#N)CC(C)(C)C=O)cc1 (centres undefined)	> 490	> 490	
CCOC(=O)c1c(NS(=O)(=O)c2ccc(C)cc2)sc(C)c1C	> 200	33.9	
O=NN(CCCl)C(=O)NCCCl	> 1150	> 1150	
CC(=O)Nc1ccc(Nc2nc(=O)[nH]c(=O)[nH]2)cc1	> 200	> 200	
CC(C)=CCc1c(O)cc(O)c2c1O[C@H](c1cc3c(cc1O)O[C@@H](c1ccc(O)cc1)C3c1cc(O)cc(O)c1)CC2=O (some centres undefined)	> 77.6	36.3	
Cc1cccc(NC(=O)C(=O)C2C(=O)NC(=O)NC2=O)c1C	> 832	794	
COC(=O)c1cc(C(=O)O)c(=O)n2ccccc12	> 200	174	
COc1ccc(-n2c(-c3ccccc3)cc(-c3cccs3)c2-c2cccs2)cc1	> 200	> 200	
CCC1=CCN(c2ccccn2)OC1c1ccc(OC)cc1 (centres undefined)	> 63.1	60.3	

Structure (SMILES)	EC50 [µM]	IC50 [µM]	outcome
O=C(Nn1c(-c2ccccc2)nc2ccccc2c1=O)c1ccc([N+](=O)[O-])cc1	> 200	> 200	
COC(=O)C1=C(C(=O)OC)N(c2ccncc2)C(c2ccco2)=CC1c1ccccc1[N+](=O)[O-] (centres undefined)	> 74.1	7.24	
N=C1c2ccccc2C(=O)c2c(NCCNCCO)ccc(O)c21	> 7.76	0.759	
N/N=C1\c2ccccc2C2/C(=N\N)c3ccccc3C12 (centres undefined)			inactive
C[C@H]1CC[C@@]2(OC1)O[C@H]1C[C@H]3[C@@H]4CC[C@@H]5C[C@@H](OC6OC(CO)C(O)C(O)C6OC6OC(CO)C(O)C(O)C6O)CC[C@]5(C)[C@H]4CC[C@]3(C)[C@H]1[C@@H]2C (some centres undefined)	> 200	5.25	
C[N+]1(CCCC(O)CC[N+]2(C)CCCC2)CCCC1 (centres undefined)			inactive
O=C1C2=C(c3ccccc31)C(c1ccccc1Cl)NC(=S)N2 (centres undefined)	> 79.4	33.1	
CCN(CC)CC1CCCCN1CC(=O)N1CC(C)C(=O)Nc2ccccc21 (centres undefined)	34.7	251	
Cc1ccc(Nc2nc3ccccc3nc2NS(=O)(=O)c2ccc(N)cc2)cc1	> 200	43.7	
Cc1cc(SSc2cc(C)c3ccccc3n2)nc2ccccc12	> 200	110	
Cn1c(N)c2c3c(sc2nc1=O)CCCC3	77.6	> 100	
CCOC(=O)C(=Cc1ccc(C#N)cc1)C(=O)OCC	> 132	8.91	
CC(C)OP(=O)(OC(C)C)/C(C#N)=C/c1ccco1	> 200	> 200	
S=C(NNC1=NCCCN1)Nc1ccccc1	> 200	12.6	
COc1nc2c(c(=O)n1C)N[C@@H]1[C@@H](O)[C@H](O)CO[C@@H]1N2	> 200	> 200	
O=C(O)CN1CCN2CCOCCN(CC1)CCN(CC(=O)O)CC2	> 200	> 200	
COc1cc2c(c(C3(O)C(=O)N(C)c4ccccc43)c1OC)OCO2 (centres undefined)	> 200	> 200	
CCn1c(=O)c(C(=O)O)c(Cl)c2cc3c(cc21)OCO3			inactive
O=C(Nc1ccc(Cl)c(Cl)c1)OCCN1c2ccccc2Sc2ccccc21	> 200	38	
O=C([CH-]C(=O)c1ccccc1)c1ccccc1.[CH2-]C.[CH2-]C.[Tl+3]	> 53.7	> 53.7	
COC(=O)C(CCC#N)(CCC#N)C(=O)OC	> 21.9	> 21.9	
O=c1[nH][nH]c(=O)c2nc(Nc3ccccc3)ncc12	> 28.2	> 28.2	

Structure (SMILES)	EC50 [µM]	IC50 [µM]	outcome
O=C(Nc1ccc(C2=NCCN2)cc1)Nc1cc(NC(=O)Nc2ccc(C3=NCCN3)cc2)cc(C(=O)O)c1	38.9	> 200	
COC(=O)CNC(=O)c1cc(C)cc2c1Oc1c(cc(C)cc1C(=O)NCC(=O)OC)S2	> 200	> 200	
NC(N)=Nc1nn[nH]n1	> 200	> 200	
C/C=C\CCC1CCCCN(C(=O)OC(C)(C)C)C1OCC (centres undefined)	> 158	> 158	
O=S(=O)(N=NC=C1c2ccccc2N(O)c2ccccc21)c1ccc(Cl)cc1			inactive
CCc1cccc(C(C)C)c1NC(=O)C(=O)C(Cc1nc2ccccc2[nH]c1=O)C(=O)OC (centres undefined)	> 112	> 112	
Cn1c(=O)c2nc(NCC3CCCCC3)sc2n(C)c1=O	> 107	102	
CCOc1ccc(NC(=O)C(=O)CC(=O)C2=C(C)Nc3ccccc3S2)cc1	> 64.6	> 64.6	
Cc1cn(C2CC(OC(c3ccccc3)(c3ccccc3)c3ccccc3)C(COC(c3ccccc3)(c3ccccc3)c3ccccc3)O2)c(=O)[nH]c1=O (centres undefined)	> 200	> 200	
O=[N+]([O-])c1ccc(Cl)c(C=NC23CC4CC(CC(C4)C2)C3)c1	> 200	3.89	
OC1=CN=C(c2ccccc2)Oc2ccccc21	> 15.8	> 15.8	
CN(C)CCCOc1ccc(/C=C2/CCC/C(=C/c3ccc(OCCCN(C)C)cc3)C2=O)cc1	> 15.1	1.05	
O=C1C=C(c2[nH]c3ccccc3c2C2=CC(=O)c3ccccc3C2=O)C(=O)c2ccccc21			inactive
CCOC(=O)C1(C(=O)OCC)COS(=O)OC1	> 186	97.7	
NC(N)=Nc1ccc(/C=C2\C=Cc3ccccc32)cc1	> 27.5	10.5	
COc1cc(C(=O)O)c(C(=O)c2ccc([N+](=O)[O-])cc2)cc1OC	> 200	> 200	
C[N+](C)(C)CCCCCCCCCC[N+](C)(C)C	> 603	> 603	
O=C(CC1=Nc2nnc(-c3nnc4n3C(=O)C(CC(=O)c3cccnc3)=N4)n2C1=O)c1cccnc1	> 15.1	> 15.1	
Cc1ccc(S(=O)(=O)n2cncc2CO)cc1	> 200	> 200	
COc1ccc(/C=N/n2cnc3c(sc(=S)n3-c3ccccc3)c2=O)cc1	> 6.92	> 6.92	
Cc1cc(S(=O)(=O)Nc2nc(N)nc(N(C)C)n2)c(SC(C(=O)O)c2ccccc2)cc1Cl (centres undefined)	85.1	> 200	
OC12c3ccccc3C1(N1CCOCC1)CCCCC21OCCCO1 (centres undefined)	170	295	
